Earlier results on 1 compound are cited in patent US20050123612A1, “Ribavirin granulate for producing coated tablets” (priority 2001, published 2005).

The test system of this data set is embryo development. Particulars: animal experiments; in particular first six weeks of embryo development.

Turning to `NC(=O)c1ncn([C@@H]2O[C@H](CO)[C@@H](O)[C@H]2O)n1` [ribavirin, 1-β-D-Ribafuranosyl-1,2,4-triazole-3-carboxamide], the teratogenicity result was “teratogenic”.
